Measured values reported in ChEMBL document CHEMBL1132062, “A new class of potent RAR antagonists: dihydroanthracenyl, benzochromenyl and benzothiochromenyl retinoids” (Bioorg Med Chem Lett, 1999).

What was measured:
[1] = species on record: Mus musculus; test: Compound was tested for abrasion score in mice at a dose of 3.6 nmol/25 g of TTNPB and 28.8 nmol/25 g of the compound; format: functional
[2] = species on record: Mus musculus; test: Compound was tested for abrasion score in mice at a dose of 3.6 nmol/25 g of TTNPB and 7.2 nmol/25 g of the compound; format: functional
[3] = species on record: Mus musculus; test: Compound was tested for flaking score in mice at a dose of 3.6 nmol/25 g of TTNPB and 7.2 nmol/25 g of the compound; format: functional
[4] = species on record: Mus musculus; test: Compound was tested for its effect on body weight gain in mice at a dose of 3.6 nmol/25 g of TTNPB and 28.8 nmol/25 g of the compound; format: functional
[5] = species on record: Mus musculus; test: Compound was tested for its effect on body weight gain in mice at a dose of 3.6 nmol/25 g of TTNPB and 7.2 nmol/25 g of the compound; format: functional
[6] = species on record: Mus musculus; test: Compound was tested for cutaneous toxicity score in mice at a dose of 3.6 nmol/25 g of TTNPB and 28.8 nmol/25 g of the compound; format: functional
[7] = species on record: Mus musculus; test: Compound was tested for cutaneous toxicity score in mice at a dose of 3.6 nmol/25 g of TTNPB and 7.2 nmol/25 g of the compound; format: functional
[8] = species on record: Mus musculus; test: Compound was tested for flaking score in mice at a dose of 3.6 nmol/25 g of TTNPB and 28.8 nmol/25 g of the compound; format: functional
[9] = target: T1, Retinoic acid receptor gamma (Homo sapiens, UniProt P13631); test: Binding affinity of [3H]- RA to baculovirus expressed human Retinoic acid receptor gamma
T1 sequence (P13631 whole entry): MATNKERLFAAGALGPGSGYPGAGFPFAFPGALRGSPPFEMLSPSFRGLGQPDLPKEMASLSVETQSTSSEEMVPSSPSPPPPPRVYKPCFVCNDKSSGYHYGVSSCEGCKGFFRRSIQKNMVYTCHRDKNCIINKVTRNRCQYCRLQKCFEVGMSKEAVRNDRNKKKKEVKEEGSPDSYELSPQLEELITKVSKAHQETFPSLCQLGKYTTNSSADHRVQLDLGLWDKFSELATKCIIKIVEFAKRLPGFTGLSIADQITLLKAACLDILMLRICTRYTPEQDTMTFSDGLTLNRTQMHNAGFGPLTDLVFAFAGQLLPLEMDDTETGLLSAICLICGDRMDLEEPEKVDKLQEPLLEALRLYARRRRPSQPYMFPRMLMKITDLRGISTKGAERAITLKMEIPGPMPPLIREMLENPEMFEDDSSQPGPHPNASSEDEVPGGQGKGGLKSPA

[10] = target: T2, Retinoic acid receptor beta (Homo sapiens, UniProt P10826); test: Binding affinity of [3H]- RA to baculovirus expressed human Retinoic acid receptor beta
T2 sequence (P10826 whole entry): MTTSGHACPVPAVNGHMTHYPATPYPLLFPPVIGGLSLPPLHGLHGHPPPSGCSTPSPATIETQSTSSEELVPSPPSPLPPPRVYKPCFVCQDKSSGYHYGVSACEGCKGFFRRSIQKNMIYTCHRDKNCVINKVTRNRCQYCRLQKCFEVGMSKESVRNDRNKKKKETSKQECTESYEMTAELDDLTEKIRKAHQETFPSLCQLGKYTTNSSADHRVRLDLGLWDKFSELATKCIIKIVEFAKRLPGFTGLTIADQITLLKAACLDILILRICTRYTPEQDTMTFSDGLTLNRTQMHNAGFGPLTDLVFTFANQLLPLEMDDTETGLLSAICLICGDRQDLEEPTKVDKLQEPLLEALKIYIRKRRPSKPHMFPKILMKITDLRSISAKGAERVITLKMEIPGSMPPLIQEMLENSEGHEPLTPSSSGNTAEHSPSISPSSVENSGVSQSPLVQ

[11] = target: T1, Retinoic acid receptor gamma; test: Antagonistic activity against RAR gamma in transcriptional activation assay with 3.2 nM TTNPB; format: functional
[12] = target: T3, Retinoic acid receptor alpha (Homo sapiens, UniProt P10276); test: Binding affinity of [3H]- RA to baculovirus expressed human RAR alpha
T3 sequence (P10276 whole entry): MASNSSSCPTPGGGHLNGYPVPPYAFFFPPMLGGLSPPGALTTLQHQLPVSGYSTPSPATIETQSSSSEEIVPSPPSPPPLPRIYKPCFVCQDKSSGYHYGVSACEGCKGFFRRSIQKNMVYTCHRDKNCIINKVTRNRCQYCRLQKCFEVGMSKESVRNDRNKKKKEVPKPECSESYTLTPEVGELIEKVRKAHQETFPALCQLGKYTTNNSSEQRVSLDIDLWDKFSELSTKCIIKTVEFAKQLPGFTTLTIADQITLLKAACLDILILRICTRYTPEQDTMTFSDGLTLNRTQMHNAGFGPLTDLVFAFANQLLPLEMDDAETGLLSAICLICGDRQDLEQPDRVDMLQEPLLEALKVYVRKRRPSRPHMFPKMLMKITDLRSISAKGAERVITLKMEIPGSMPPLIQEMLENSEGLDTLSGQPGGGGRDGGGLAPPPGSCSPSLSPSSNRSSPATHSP

[13] = target: T2, Retinoic acid receptor beta; test: Antagonistic activity against RAR beta in transcriptional activation assay with 10 nM TTNPB; format: functional
[14] = target: T3, Retinoic acid receptor alpha; test: Antagonistic activity against RAR alpha in transcriptional activation assay with 32 nM TTNPB; format: functional
[15] = target: T4, Retinoic acid receptor alpha (Homo sapiens) (UniProt P10276); test: Relative inhibition of TTNPB activity vs background activity (100% inhibition) against RAR alpha; format: functional; settings: concentration not given here
T4 sequence (whole entry): T3 sequence (P10276 whole entry)

[16] = target: T5, Retinoic acid receptor beta (Homo sapiens) (UniProt P10826); test: Relative inhibition of TTNPB activity vs background activity (100% inhibition) against RAR beta; format: functional; settings: concentration not given here
T5 sequence (whole entry): T2 sequence (P10826 whole entry)

[17] = target: T6, Retinoic acid receptor gamma (Homo sapiens) (UniProt P13631); test: Relative inhibition of TTNPB activity vs background activity(100% inhibition) against RAR gamma; format: functional; settings: concentration not given here
T6 sequence (whole entry): T1 sequence (P13631 whole entry)

[18] = species on record: Mus musculus; test: Compound was tested for abrasion score in mice at a dose of 3.6 nmol/25 g; format: functional
[19] = species on record: Mus musculus; test: Compound was tested for flaking score in mice at a dose of 3.6 nmol/25 g; format: functional
[20] = species on record: Mus musculus; test: Compound was tested for its effect on body weight gain in mice at a dose of 3.6 nmol/25 g; format: functional
[21] = species on record: Mus musculus; test: Compound was tested for cutaneous toxicity score in mice at a dose of 3.6 nmol/25 g; format: functional

Row | Compound | Kd [9] [nM] | Kd [10] [nM] | IC50 [11] [nM] | Kd [12] [nM] | IC50 [13] [nM] | IC50 [14] [nM] | inhibition [15] [%] | inhibition [16] [%] | inhibition [17] [%] | further results
1 | C/C(=C\c1ccc(C(=O)O)cc1)c1ccc2c(c1)C(C)(C)CCC2(C)C.Cc1ccc(C2=CC(C)(C)Oc3cc4ccc(-c5ccc(C(=O)O)cc5)cc4cc32)cc1 | – | – | – | – | – | – | – | – | – | Abrasion score [1]: 0; Abrasion score [2]: 1; Flaking score [3]: 1; Gain [4]: 2%; Gain [5]: 3%; Cutaneous toxicology score [6]: 1; Cutaneous toxicology score [7]: 1.9; Flaking score [8]: 1
2 | C/C(=C\c1ccc(C(=O)O)cc1)c1ccc2c(c1)C(C)(C)CCC2(C)C.Cc1ccc(C2=CCC(C)(C)c3cc4ccc(-c5ccc(C(=O)O)cc5)cc4cc32)cc1 | – | – | – | – | – | – | – | – | – | Abrasion score [1]: 0; Abrasion score [2]: 1; Flaking score [3]: 1; Gain [4]: 5%; Gain [5]: 2%; Cutaneous toxicology score [6]: 1.1; Cutaneous toxicology score [7]: 2; Flaking score [8]: 1
3 | Cc1ccc(C2=CCC(C)(C)c3cc4ccc(-c5ccc(C(=O)O)cc5)cc4cc32)cc1 [listing 1 of 2 here] | 7 | 4 | 2 | 13 | 22 | 20 | – | – | – | –
4 | C/C(=C\c1ccc(C(=O)O)cc1)c1ccc2c(c1)C(C)(C)CCC2(C)C.Cc1ccc(C2=CC(C)(C)Oc3cc4ccc(-c5ccc(C(=O)O)cc5)cc4cc32)s1 | – | – | – | – | – | – | – | – | – | Abrasion score [1]: 1; Abrasion score [2]: 3; Flaking score [3]: 2; Gain [4]: 1%; Gain [5]: 6%; Cutaneous toxicology score [6]: 3; Cutaneous toxicology score [7]: 4.6; Flaking score [8]: 2
5 | C/C(=C\c1ccc(C(=O)O)cc1)c1ccc2c(c1)C(C)(C)CCC2(C)C | – | – | – | – | – | – | – | – | – | Abrasion score [18]: 2; Flaking score [19]: 3; Gain [20]: 6%; Cutaneous toxicology score [21]: 11
6 | C/C(=C\c1ccc(C(=O)O)cc1)c1ccc2c(c1)C(C)(C)CCC2(C)C.Cc1ccc(C2=CC(C)(C)Sc3cc4ccc(-c5ccc(C(=O)O)cc5)cc4cc32)cc1 | – | – | – | – | – | – | – | – | – | Abrasion score [1]: 0; Abrasion score [2]: 0; Flaking score [3]: 1; Gain [4]: 0%; Gain [5]: 5%; Cutaneous toxicology score [6]: 0.7; Cutaneous toxicology score [7]: 1.4; Flaking score [8]: 1

The next lines start with results.

Row | Kd [9] [nM] | Kd [10] [nM] | IC50 [11] [nM] | Kd [12] [nM] | IC50 [13] [nM] | IC50 [14] [nM] | inhibition [15] [%] | inhibition [16] [%] | inhibition [17] [%] | Compound | further results
7 | – | – | – | – | – | – | 97 | 98 | 98 | Cc1ccc(C2=CC(C)(C)Sc3cc4ccc(-c5ccc(C(=O)O)cc5)cc4cc32)cc1 [listing 1 of 2 here] | –
8 | 18 | 13 | – | 13 | – | – | – | – | – | Cc1ccc(C2=CC(C)(C)Sc3cc4ccc(-c5ccc(C(=O)O)cc5)cc4cc32)s1 | –
9 | 11 | 6 | 2 | 15 | 15 | 20 | 95 | 83 | 96 | Cc1ccc(C2=CCC(C)(C)c3cc4ccc(-c5ccc(C(=O)O)cc5)cc4cc32)s1 | –
10 | 5 | 6 | 0.5 | 5.5 | 2 | 1.5 | – | – | – | Cc1ccc(C2=CC(C)(C)Sc3cc4ccc(-c5ccc(C(=O)O)cc5)cc4cc32)cc1 [listing 2 of 2 here] | –
11 | – | – | – | – | – | – | 97 | 98 | 98 | Cc1ccc(C2=CC(C)(C)Oc3cc4ccc(-c5ccc(C(=O)O)cc5)cc4cc32)cc1 [listing 1 of 2 here] | –
12 | – | – | – | – | – | – | 97 | 97 | 98 | Cc1ccc(C2=CCC(C)(C)c3cc4ccc(-c5ccc(C(=O)O)cc5)cc4cc32)cc1 [listing 2 of 2 here] | –
13 | 14 | 7 | 2 | 14 | 7.5 | 5.5 | – | – | – | Cc1ccc(C2=CC(C)(C)Oc3cc4ccc(-c5ccc(C(=O)O)cc5)cc4cc32)cc1 [listing 2 of 2 here] | –
14 | – | – | 4 | – | 6.5 | 6.5 | 97 | 98 | 97 | Cc1ccc(C2=CC(C)(C)Oc3cc4ccc(-c5ccc(C(=O)O)cc5)cc4cc32)s1 | –
